Data reported in PubChem BioAssay AID1745861.

target: Solute carrier family 22 member 3 (Homo sapiens) (UniProt O75751); assay: OCT3 (SLC22A3) uptake inhibitors, dose response, HEK293 JumpIn overexpressing cells, impedance, MPP+ (AID 1745861); settings: impedance (xCELLigence)
Sequence (O75751 whole entry, looked up): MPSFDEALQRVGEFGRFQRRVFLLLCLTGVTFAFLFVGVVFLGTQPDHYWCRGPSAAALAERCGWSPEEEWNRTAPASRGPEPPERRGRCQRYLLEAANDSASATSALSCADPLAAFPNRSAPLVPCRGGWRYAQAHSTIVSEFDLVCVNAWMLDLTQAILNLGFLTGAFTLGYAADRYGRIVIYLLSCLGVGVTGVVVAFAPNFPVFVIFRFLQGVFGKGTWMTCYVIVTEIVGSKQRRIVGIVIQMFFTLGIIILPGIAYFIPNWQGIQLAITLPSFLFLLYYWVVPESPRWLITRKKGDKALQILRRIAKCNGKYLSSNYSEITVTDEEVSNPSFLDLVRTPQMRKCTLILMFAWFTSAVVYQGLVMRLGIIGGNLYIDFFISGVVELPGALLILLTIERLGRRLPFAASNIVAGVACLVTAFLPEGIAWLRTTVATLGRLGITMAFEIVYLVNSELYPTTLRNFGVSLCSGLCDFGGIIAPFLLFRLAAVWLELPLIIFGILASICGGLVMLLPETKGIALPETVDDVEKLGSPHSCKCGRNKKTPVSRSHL

Row | SMILES | IC50
1 | C[n+]1ccc(-c2ccccc2)cc1 | 199000 nM
2 | C=CC(=O)N1CCC[C@@H](n2nc(-c3ccc(Oc4ccccc4)cc3)c3c(N)ncnc32)C1 | 7900 nM
3 | CCN1/C(=C/c2ccc3ccccc3[n+]2CC)C=Cc2ccccc21 | 400 nM
4 | Cc1cn(-c2cc(NC(=O)c3ccc(C)c(Nc4nccc(-c5cccnc5)n4)c3)cc(C(F)(F)F)c2)cn1 | 500 nM
5 | C[C@]12C[C@H](O)[C@H]3[C@@H](CCC4=CC(=O)CC[C@@]43C)[C@@H]1CC[C@@H]2C(=O)CO | 1600 nM
